# Data published in PubChem BioAssay AID344 (DTP/NCI, 2004).
# “And” between values parts separate entries of the source, which are not always exact repeats. Equal values may be shown once. Inconclusive results and toxic doses are left out.
# Test system: mice, LPC-1 plasma cell tumor ip, median survival T/C
# Experiment: NCI In Vivo Anticancer Drug Screen. Data for tumor model Lieberman Plasma Cell No. 1 (LPC-1) (intraperitoneal) in unknown mice
# Details: endpoint: median survival time, higher = longer survival
# Method: The antitumor activity of compounds was measured in mice bearing transplantable tumors. Survival or tumor size were measured and the results are expressed as the measurement made in the treated group (T) divided by the measurement made in the vehicle treated control group (C). The tumor model used in this assay is Lieberman Plasma Cell No. 1 (LPC-1) (intraperitoneal) in unknown mice
# [1] = dose: 75.0 mg/kg/injection, schedule: Q01DX028 (sc), vehicle: carboxymethylcellulose (CMC)
# [2] = dose: 150.0 mg/kg/injection, schedule: Q01DX028 (sc), vehicle: carboxymethylcellulose (CMC)
compound,measurement,setting,value
COc1cc2c(c3c1c(=O)c1ccccc1n3C)C=CC(C)(C)O2,T/C,"dose: 9.38 mg/kg/injection, schedule: Q03HX024 (oral), vehicle: steriod suspending solution",118 % of control
same,T/C,"dose: 18.0 mg/kg/injection, schedule: Q01DX021 (sc), vehicle: other",121 % of control
same,T/C,"dose: 18.0 mg/kg/injection, schedule: Q03HX008 (sc), vehicle: other",166 % of control
same,T/C,"dose: 18.75 mg/kg/injection, schedule: Q03HX008 (ip), vehicle: steriod suspending solution",103 % of control
same,T/C,"dose: 18.75 mg/kg/injection, schedule: Q03HX024 (oral), vehicle: steriod suspending solution",118 % of control
same,T/C,"dose: 23.0 mg/kg/injection, schedule: Q01DX028 (sc), vehicle: other",154 % of control
same,T/C,"dose: 27.0 mg/kg/injection, schedule: Q03HX008 (sc), vehicle: other",280 % of control
same,T/C,"dose: 27.0 mg/kg/injection, schedule: Q03HX024 (sc), vehicle: other",178 % of control
same,T/C,"dose: 37.5 mg/kg/injection, schedule: Q01DX028 (oral), vehicle: other",105 % of control
same,T/C,"dose: 37.5 mg/kg/injection, schedule: Q03HX008 (oral), vehicle: steriod suspending solution",118 % of control
same,T/C,"dose: 37.5 mg/kg/injection, schedule: Q03HX024 (oral), vehicle: steriod suspending solution",109 % of control
same,T/C,"dose: 40.0 mg/kg/injection, schedule: Q01DX021 (sc), vehicle: other",164 % of control
same,T/C,"dose: 40.0 mg/kg/injection, schedule: Q03HX008 (sc), vehicle: other",180 % of control
same,T/C,"dose: 40.0 mg/kg/injection, schedule: Q03HX024 (sc), vehicle: other",204 % of control
same,T/C,"dose: 60.0 mg/kg/injection, schedule: Q01DX021 (sc), vehicle: other",173 % of control
same,T/C,"dose: 60.0 mg/kg/injection, schedule: Q04DX003 (sc), vehicle: other",152 % of control
same,T/C,"dose: 70.0 mg/kg/injection, schedule: Q03HX024 (sc), vehicle: steriod suspending solution",112 % of control
same,T/C,"dose: 75.0 mg/kg/injection, schedule: Q01DX001 (ip), vehicle: steriod suspending solution",112 % of control
same,T/C,"dose: 75.0 mg/kg/injection, schedule: Q01DX001 (oral), vehicle: steriod suspending solution",96 % of control
same,T/C,"dose: 75.0 mg/kg/injection, schedule: Q01DX028 (oral), vehicle: other",108 % of control
same,T/C,"dose: 75.0 mg/kg/injection, schedule: Q03HX008 (oral), vehicle: steriod suspending solution",87 % of control
same,T/C,"dose: 75.0 mg/kg/injection, schedule: Q03HX024 (oral), vehicle: steriod suspending solution",150 % of control
same,T/C,"dose: 90.0 mg/kg/injection, schedule: Q01DX005 (sc), vehicle: other",150 % of control
same,T/C,"dose: 99.0 mg/kg/injection, schedule: Q01DX020 (oral), vehicle: saline",120 % of control
same,T/C,"dose: 100.0 mg/kg/injection, schedule: Q01DX001 (sc), vehicle: steriod suspending solution",100 % of control
same,T/C,"dose: 142.0 mg/kg/injection, schedule: Q01DX001 (sc), vehicle: steriod suspending solution",104 % of control
same,T/C,"dose: 143.0 mg/kg/injection, schedule: Q03HX008 (sc), vehicle: steriod suspending solution",153 % of control
same,T/C,"dose: 143.0 mg/kg/injection, schedule: Q03HX024 (sc), vehicle: steriod suspending solution",156 % of control
same,T/C,"dose: 145.0 mg/kg/injection, schedule: Q03HX024 (sc), vehicle: other",103 % of control
same,T/C,"dose: 150.0 mg/kg/injection, schedule: Q01DX001 (ip), vehicle: steriod suspending solution",100 % of control
same,T/C,"dose: 150.0 mg/kg/injection, schedule: Q01DX001 (oral), vehicle: steriod suspending solution",106 % of control and 112 % of control
same,T/C,"dose: 150.0 mg/kg/injection, schedule: Q01DX028 (oral), vehicle: other",100 % of control
same,T/C,"dose: 180.0 mg/kg/injection, schedule: Q01DX001 (sc), vehicle: other",154 % of control
same,T/C,"dose: 180.0 mg/kg/injection, schedule: Q01DX005 (sc), vehicle: other",171 % of control
same,T/C,"dose: 180.0 mg/kg/injection, schedule: Q04DX003 (sc), vehicle: other",173 % of control
same,T/C,"dose: 204.0 mg/kg/injection, schedule: Q03HX008 (sc), vehicle: steriod suspending solution",159 % of control
same,T/C,"dose: 214.0 mg/kg/injection, schedule: Q01DX001 (sc), vehicle: steriod suspending solution",102 % of control
same,T/C,"dose: 214.0 mg/kg/injection, schedule: Q03HX024 (sc), vehicle: other",112 % of control and 121 % of control
same,T/C,"dose: 300.0 mg/kg/injection, schedule: Q01DX001 (oral), vehicle: steriod suspending solution",106 % of control
same,T/C,"dose: 300.0 mg/kg/injection, schedule: Q## X008 (oral), vehicle: other",161 % of control
same,T/C,"dose: 320.0 mg/kg/injection, schedule: Q01DX001 (sc), vehicle: steriod suspending solution",104 % of control
same,T/C,"dose: 320.0 mg/kg/injection, schedule: Q03HX024 (sc), vehicle: other",118 % of control
same,T/C,"dose: 360.0 mg/kg/injection, schedule: Q01DX001 (sc), vehicle: other",152 % of control
same,T/C,"dose: 480.0 mg/kg/injection, schedule: Q01DX001 (sc), vehicle: steriod suspending solution",118 % of control
same,T/C,"dose: 528.0 mg/kg/injection, schedule: Q## X008 (sc), vehicle: steriod suspending solution",116 % of control
same,T/C,"dose: 600.0 mg/kg/injection, schedule: Q01DX001 (ip), vehicle: steriod suspending solution",112 % of control
same,T/C,"dose: 600.0 mg/kg/injection, schedule: Q01DX001 (oral), vehicle: steriod suspending solution",120 % of control
same,T/C,"dose: 600.0 mg/kg/injection, schedule: Q## X024 (oral), vehicle: steriod suspending solution",86 % of control
same,T/C,"dose: 800.0 mg/kg/injection, schedule: Q## X024 (sc), vehicle: steriod suspending solution",166 % of control
same,T/C,"dose: 1136.0 mg/kg/injection, schedule: Q## X008 (sc), vehicle: steriod suspending solution",108 % of control
same,T/C,"dose: 1712.0 mg/kg/injection, schedule: Q## X024 (sc), vehicle: steriod suspending solution",160 % of control
same,T/C,"dose: 2560.0 mg/kg/injection, schedule: Q## X008 (sc), vehicle: steriod suspending solution",172 % of control
same,T/C,"dose: 2560.0 mg/kg/injection, schedule: Q## X024 (sc), vehicle: steriod suspending solution",118 % of control
CCOC(=O)C(Cc1ccc(N(CCCl)CCCl)cc1)NC=O (stereo not given),T/C,"dose: 18.7 mg/kg/injection, schedule: Q01DX028 (sc), vehicle: carboxymethylcellulose (CMC)",176 % of control
same,T/C,[1],184 % of control
same,T/C,[2],115 % of control
same,T/C,"dose: 300.0 mg/kg/injection, schedule: Q01DX028 (sc), vehicle: carboxymethylcellulose (CMC)",92 % of control
Cn1c2ccccc2c(=O)c2c(O)cc3c(c21)C=C(Br)C(C)(C)O3,T/C,"dose: 9.38 mg/kg/injection, schedule: Q01DX028 (sc), vehicle: carboxymethylcellulose (CMC)",97 % of control
same,T/C,"dose: 18.75 mg/kg/injection, schedule: Q01DX028 (sc), vehicle: carboxymethylcellulose (CMC)",97 % of control
same,T/C,"dose: 37.5 mg/kg/injection, schedule: Q01DX028 (sc), vehicle: carboxymethylcellulose (CMC)",107 % of control
same,T/C,[1],97 % of control
same,T/C,[2],95 % of control
C/C(=N/N=C(N)N)c1ccc(NC(=O)Nc2ccc(/C(C)=N/N=C(N)N)cc2)cc1,T/C,"dose: 53.0 mg/kg/injection, schedule: Q01DX028 (sc), vehicle: carboxymethylcellulose (CMC)",97 % of control
same,T/C,"dose: 88.0 mg/kg/injection, schedule: Q01DX028 (sc), vehicle: carboxymethylcellulose (CMC)",92 % of control
same,T/C,"dose: 147.0 mg/kg/injection, schedule: Q01DX028 (sc), vehicle: carboxymethylcellulose (CMC)",94 % of control
same,T/C,"dose: 245.0 mg/kg/injection, schedule: Q01DX028 (sc), vehicle: carboxymethylcellulose (CMC)",97 % of control
CCN(CC)c1ccc2cc3ccc(=[N+](CC)CC)cc-3oc2c1,T/C,"dose: 1.0 mg/kg/injection, schedule: Q01DX028 (sc), vehicle: methylcellulose (MC)",97 % of control
same,T/C,"dose: 2.0 mg/kg/injection, schedule: Q01DX028 (sc), vehicle: methylcellulose (MC)",93 % of control
same,T/C,"dose: 4.0 mg/kg/injection, schedule: Q01DX028 (sc), vehicle: methylcellulose (MC)",89 % of control
same,T/C,"dose: 8.0 mg/kg/injection, schedule: Q01DX028 (sc), vehicle: methylcellulose (MC)",87 % of control
